From ChEMBL document CHEMBL3734705, “Synthesis and in vitro cytotoxicity of novel C-12 substituted-14-deoxy-andrographolide derivatives as potent anti-cancer agents” (2015)

What was measured:
Malme-3M = assay: Cytotoxicity against human MALME-3M cells assessed as growth level at 10 uM after 48 hrs by SRB assay; assay type: functional
[1] = Cytotoxicity against human PC3 cells assessed as growth level at 10 uM after 48 hrs by SRB assay; assay type: functional, PC-3
[2] = Cytotoxicity against human UACC62 cells assessed as growth level at 10 uM after 48 hrs by SRB assay; assay type: functional, UACC-62
[3] = Cytotoxicity against human SF539 cells assessed as growth level at 10 uM after 48 hrs by SRB assay; assay type: functional, SF-539
786-0 = assay: Cytotoxicity against human 786-0 cells assessed as growth level at 10 uM after 48 hrs by SRB assay; assay type: functional
[4] = Cytotoxicity against human SF295 cells assessed as growth level at 10 uM after 48 hrs by SRB assay; assay type: functional, SF-295
[5] = Cytotoxicity against human TK10 cells after 48 hrs by SRB assay; assay type: functional; conditions: TK-10, 48 h
[6] = Cytotoxicity against human OVCAR3 cells after 48 hrs by SRB assay; assay type: functional; conditions: OVCAR-3, 48 h
NCI-H322M = assay: Cytotoxicity against human NCI-H322M cells after 48 hrs by SRB assay; assay type: functional
[7] = Cytotoxicity against human HCT15 cells assessed as growth level at 10 uM after 48 hrs by SRB assay; assay type: functional, HCT-15
[8] = Cytotoxicity against human LOXIMVI cells assessed as growth level at 10 uM after 48 hrs by SRB assay; assay type: functional, LOX IMVI
[9] = Cytotoxicity against human UO31 cells assessed as growth level at 10 uM after 48 hrs by SRB assay; assay type: functional, UO-31
ACHN [10] = assay: Cytotoxicity against human ACHN cells after 48 hrs by SRB assay; assay type: functional
[11] = Cytotoxicity against human RXF393 cells assessed as growth level at 10 uM after 48 hrs by SRB assay; assay type: functional, RXF 393
[12] = Cytotoxicity against human SNB75 cells assessed as growth level at 10 uM after 48 hrs by SRB assay; assay type: functional, SNB-75
[13] = Cytotoxicity against human UACC257 cells after 48 hrs by SRB assay; assay type: functional; conditions: UACC-257, 48 h
NCI-H226 = assay: Cytotoxicity against human NCI-H226 cells assessed as growth level at 10 uM after 48 hrs by SRB assay; assay type: functional
[14] = Cytotoxicity against human OVCAR4 cells after 48 hrs by SRB assay; assay type: functional; conditions: OVCAR-4, 48 h; for CC50: read-out: LC50 (the source's name)
[15] = Cytotoxicity against human SKOV3 cells after 48 hrs by SRB assay; assay type: functional; conditions: SK-OV-3, 48 h; for CC50: read-out: LC50 (the source's name)
CCRF-CEM [16] = assay: Cytotoxicity against human CCRF-CEM cells assessed as growth level at 10 uM after 48 hrs by SRB assay; assay type: functional
A549 = assay: Cytotoxicity against human A549 cells assessed as growth level at 10 uM after 48 hrs by SRB assay; assay type: functional
[17] = Cytotoxicity against human Hs578T cells after 48 hrs by SRB assay; assay type: functional; conditions: Hs-578T
CCRF-CEM [18] = assay: Cytotoxicity against human CCRF-CEM cells after 48 hrs by SRB assay; assay type: functional; conditions: for CC50: read-out: LC50 (the source's name)
SK-MEL-5 = assay: Cytotoxicity against human SK-MEL-5 cells after 48 hrs by SRB assay; assay type: functional; conditions: SK-MEL-5, 48 h
[19] = Cytotoxicity against human UACC62 cells after 48 hrs by SRB assay; assay type: functional; conditions: UACC-62, 48 h
[20] = Cytotoxicity against human SNB19 cells assessed as growth level at 10 uM after 48 hrs by SRB assay; assay type: functional, SNB-19
[21] = Cytotoxicity against human MOLT4 cells after 48 hrs by SRB assay; assay type: functional; conditions: MOLT-4, 48 h
[22] = Cytotoxicity against human PC3 cells after 48 hrs by SRB assay; assay type: functional; conditions: PC-3, 48 h
[23] = Cytotoxicity against human OVCAR3 cells assessed as growth level at 10 uM after 48 hrs by SRB assay; assay type: functional, OVCAR-3
ACHN [24] = assay: Cytotoxicity against human ACHN cells assessed as growth level at 10 uM after 48 hrs by SRB assay; assay type: functional

## C=C1CC[C@@H]2[C@](C)(COC(C)=O)[C@H](OC(C)=O)CC[C@@]2(C)[C@@H]1CC(Nc1ccc(S(=O)(=O)NC(C)=O)cc1)C1=CCOC1=O (mixture of isomers)
Malme-3M
  Activity: -43.58%
[1]
  Activity: 0.69%
[2]
  Activity: -12.47%
[3]
  Activity: -76.71%
786-0
  Activity: -66.04%
[4]
  Activity: 58.44%
[5]
  GI50: 8.02 µM
  LC50: 35.6 µM
  TGI: 16.9 µM
[6]
  GI50: 1.49 µM
  LC50 (concentration killing 50% of cells): 6.13 µM
  TGI: 3.02 µM
NCI-H322M
  GI50: 10.3 µM
  LC50: 40.1 µM
  TGI: 20.3 µM
[7]
  Activity: -49.53%
[8]
  Activity: -85.84%
[9]
  Activity: -58.46%
ACHN [10]
  GI50: 7.54 µM
  LC50: 36.3 µM
  TGI: 16.5 µM
[11]
  Activity: -75.81%
[12]
  Activity: 26.28%
[13]
  GI50: 6.83 µM
  LC50 (concentration killing 50% of cells): 35.6 µM
  TGI: 16 µM
NCI-H226
  Activity: -52.34%
[14]
  GI50: 4.14 µM
  TGI: 13.7 µM
  CC50: 33.7 µM
[15]
  GI50: 9.31 µM
  TGI: 18.7 µM
  CC50: 37.4 µM
CCRF-CEM [16]
  Activity: -27.89%
A549
  Activity: 27.95%
[17]
  GI50: 8.45 µM
  LC50 (concentration killing 50% of cells): > 75 µM
  TGI: 38.8 µM
CCRF-CEM [18]
  GI50: 1.93 µM
  TGI: 6.26 µM
  CC50: > 75 µM
SK-MEL-5
  GI50: 3.22 µM
  LC50 (concentration killing 50% of cells): 30.7 µM
  TGI: 11.5 µM
[19]
  GI50: 2.59 µM
  LC50: 32 µM
  TGI: 10.8 µM
[20]
  Activity: 23.04%
[21]
  GI50: 2.2 µM
  LC50: > 75 µM
  TGI: 6.66 µM
[22]
  GI50: 6.56 µM
  LC50: 40 µM
  TGI: 16.8 µM
[23]
  Activity: -87.71%
ACHN [24]
  Activity: -63.23%

## C=C1CC[C@@H]2[C@](C)(COC(C)=O)[C@H](OC(C)=O)CC[C@@]2(C)[C@@H]1CC(Sc1ccccc1)C1=CCOC1=O (mixture of isomers)
Malme-3M
  Activity: 16.83%
[1]
  Activity: 36.43%
[2]
  Activity: -1.75%
[3]
  Activity: -43.56%
786-0
  Activity: -31.19%
[4]
  Activity: 65.88%
[5]
  GI50: 2.83 µM
  LC50: 13.4 µM
  TGI: 5.54 µM
[6]
  GI50: 1.14 µM
  LC50 (concentration killing 50% of cells): 4.92 µM
  TGI: 2.37 µM
NCI-H322M
  GI50: 2.93 µM
  LC50: > 100 µM
  TGI: 10.4 µM
[7]
  Activity: -38.36%
[8]
  Activity: -83.89%
[9]
  Activity: 35.65%
ACHN [10]
  GI50: 1.34 µM
  LC50: 6.01 µM
  TGI: 2.84 µM
[11]
  Activity: 5.01%
[12]
  Activity: 86.98%
[13]
  GI50: 1.91 µM
  LC50 (concentration killing 50% of cells): 7.2 µM
  TGI: 3.71 µM
NCI-H226
  Activity: -9.88%
[14]
  GI50: 1.36 µM
  TGI: 3.11 µM
  CC50: 7.12 µM
[15]
  GI50: 4.44 µM
  TGI: 16.8 µM
  CC50: > 100 µM
CCRF-CEM [16]
  Activity: -5.24%
A549
  Activity: 26.59%
[17]
  GI50: 4.89 µM
  LC50 (concentration killing 50% of cells): > 100 µM
  TGI: 63.3 µM
CCRF-CEM [18]
  GI50: 0.26 µM
  TGI: 1.19 µM
  CC50: > 100 µM
SK-MEL-5
  GI50: 1.42 µM
  LC50 (concentration killing 50% of cells): 5.6 µM
  TGI: 2.82 µM
[19]
  GI50: 1.3 µM
  LC50: 8.07 µM
  TGI: 3.24 µM
[20]
  Activity: 51.79%
[21]
  GI50: 1.48 µM
  LC50: > 100 µM
  TGI: 6.15 µM
[22]
  GI50: 1.84 µM
  LC50: > 100 µM
  TGI: 10.1 µM
[23]
  Activity: -84.17%
ACHN [24]
  Activity: -13.74%
